Experiments:
[1] = target: Beta-2 adrenergic receptor (Homo sapiens, UniProt P07550); format: functional, cell-based
[2] = target: 5-hydroxytryptamine receptor 2A (Homo sapiens, UniProt P28223)
[3] = target: T1, Corticotropin-releasing factor receptor 2 (Homo sapiens, UniProt Q13324)
T1 sequence (Q13324 whole entry): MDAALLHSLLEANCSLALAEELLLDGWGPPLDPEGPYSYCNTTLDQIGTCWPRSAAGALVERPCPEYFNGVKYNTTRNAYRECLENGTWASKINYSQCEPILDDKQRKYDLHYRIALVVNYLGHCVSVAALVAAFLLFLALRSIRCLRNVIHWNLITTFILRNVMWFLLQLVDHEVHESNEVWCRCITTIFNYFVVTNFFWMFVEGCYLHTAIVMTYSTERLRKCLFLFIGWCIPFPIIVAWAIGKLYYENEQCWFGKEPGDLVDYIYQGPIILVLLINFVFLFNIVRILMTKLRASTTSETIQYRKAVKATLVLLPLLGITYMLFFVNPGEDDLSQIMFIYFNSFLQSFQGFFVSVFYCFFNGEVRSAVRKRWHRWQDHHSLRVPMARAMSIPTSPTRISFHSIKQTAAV

[4] = target: T2, Alpha-2A adrenergic receptor (Homo sapiens, UniProt P08913)
T2 sequence (P08913 whole entry): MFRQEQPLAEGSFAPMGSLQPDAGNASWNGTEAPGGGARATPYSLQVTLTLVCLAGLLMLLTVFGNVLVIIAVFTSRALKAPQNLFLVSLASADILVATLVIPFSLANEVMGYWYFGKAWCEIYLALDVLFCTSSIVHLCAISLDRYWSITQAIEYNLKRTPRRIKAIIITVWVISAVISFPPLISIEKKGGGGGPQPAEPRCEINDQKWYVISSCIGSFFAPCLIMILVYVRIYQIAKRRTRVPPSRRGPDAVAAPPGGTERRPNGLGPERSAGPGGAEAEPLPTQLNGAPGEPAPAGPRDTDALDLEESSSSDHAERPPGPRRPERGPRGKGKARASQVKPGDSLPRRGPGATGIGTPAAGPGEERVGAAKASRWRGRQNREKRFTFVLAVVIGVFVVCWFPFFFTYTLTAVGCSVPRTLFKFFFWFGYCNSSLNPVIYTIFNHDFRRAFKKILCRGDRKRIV

Progesterone receptor = target: T3, Progesterone receptor (Homo sapiens, UniProt P06401)
T3 sequence (P06401 whole entry): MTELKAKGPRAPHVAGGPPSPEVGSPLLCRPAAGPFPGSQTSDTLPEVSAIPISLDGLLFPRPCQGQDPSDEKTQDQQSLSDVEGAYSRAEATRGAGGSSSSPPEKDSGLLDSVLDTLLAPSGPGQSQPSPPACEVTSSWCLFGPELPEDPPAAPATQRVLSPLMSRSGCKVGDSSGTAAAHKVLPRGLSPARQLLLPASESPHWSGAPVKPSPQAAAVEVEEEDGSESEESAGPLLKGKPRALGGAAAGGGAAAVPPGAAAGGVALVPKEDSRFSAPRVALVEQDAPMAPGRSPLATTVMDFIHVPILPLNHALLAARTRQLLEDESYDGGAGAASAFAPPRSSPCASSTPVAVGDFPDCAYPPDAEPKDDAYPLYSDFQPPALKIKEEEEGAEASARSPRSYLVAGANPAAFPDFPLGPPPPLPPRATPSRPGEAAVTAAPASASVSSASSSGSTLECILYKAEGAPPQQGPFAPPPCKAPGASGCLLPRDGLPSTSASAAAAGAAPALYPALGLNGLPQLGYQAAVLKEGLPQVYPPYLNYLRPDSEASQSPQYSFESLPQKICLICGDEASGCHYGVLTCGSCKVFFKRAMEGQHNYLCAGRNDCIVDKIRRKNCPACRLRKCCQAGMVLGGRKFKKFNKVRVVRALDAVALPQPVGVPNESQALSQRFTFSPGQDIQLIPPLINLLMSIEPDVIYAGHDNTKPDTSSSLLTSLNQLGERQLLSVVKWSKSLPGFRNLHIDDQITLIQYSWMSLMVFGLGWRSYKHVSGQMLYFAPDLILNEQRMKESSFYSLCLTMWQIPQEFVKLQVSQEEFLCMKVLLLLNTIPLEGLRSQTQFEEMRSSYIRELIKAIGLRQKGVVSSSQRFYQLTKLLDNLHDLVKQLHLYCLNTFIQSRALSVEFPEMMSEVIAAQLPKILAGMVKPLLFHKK

D(1A) dopamine receptor = D(1A) dopamine receptor (Homo sapiens, UniProt P21728)
Sequence of D(1A) dopamine receptor (P21728 whole entry): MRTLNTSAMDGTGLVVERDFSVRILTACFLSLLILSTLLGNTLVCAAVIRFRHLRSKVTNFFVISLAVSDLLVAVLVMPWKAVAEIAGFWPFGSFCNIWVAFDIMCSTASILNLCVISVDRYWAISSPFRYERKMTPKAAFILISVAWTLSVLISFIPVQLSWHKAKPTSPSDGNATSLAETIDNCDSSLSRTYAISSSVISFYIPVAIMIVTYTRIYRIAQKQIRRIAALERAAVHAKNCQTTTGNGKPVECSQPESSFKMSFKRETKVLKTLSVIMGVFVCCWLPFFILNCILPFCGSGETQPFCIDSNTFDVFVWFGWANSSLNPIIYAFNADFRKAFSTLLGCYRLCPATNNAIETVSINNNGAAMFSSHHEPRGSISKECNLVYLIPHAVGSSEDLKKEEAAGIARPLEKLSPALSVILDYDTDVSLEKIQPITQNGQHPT

Androgen receptor [5] = target: T4, Androgen receptor (Rattus norvegicus, UniProt P15207); format: functional
T4 sequence (P15207 whole entry): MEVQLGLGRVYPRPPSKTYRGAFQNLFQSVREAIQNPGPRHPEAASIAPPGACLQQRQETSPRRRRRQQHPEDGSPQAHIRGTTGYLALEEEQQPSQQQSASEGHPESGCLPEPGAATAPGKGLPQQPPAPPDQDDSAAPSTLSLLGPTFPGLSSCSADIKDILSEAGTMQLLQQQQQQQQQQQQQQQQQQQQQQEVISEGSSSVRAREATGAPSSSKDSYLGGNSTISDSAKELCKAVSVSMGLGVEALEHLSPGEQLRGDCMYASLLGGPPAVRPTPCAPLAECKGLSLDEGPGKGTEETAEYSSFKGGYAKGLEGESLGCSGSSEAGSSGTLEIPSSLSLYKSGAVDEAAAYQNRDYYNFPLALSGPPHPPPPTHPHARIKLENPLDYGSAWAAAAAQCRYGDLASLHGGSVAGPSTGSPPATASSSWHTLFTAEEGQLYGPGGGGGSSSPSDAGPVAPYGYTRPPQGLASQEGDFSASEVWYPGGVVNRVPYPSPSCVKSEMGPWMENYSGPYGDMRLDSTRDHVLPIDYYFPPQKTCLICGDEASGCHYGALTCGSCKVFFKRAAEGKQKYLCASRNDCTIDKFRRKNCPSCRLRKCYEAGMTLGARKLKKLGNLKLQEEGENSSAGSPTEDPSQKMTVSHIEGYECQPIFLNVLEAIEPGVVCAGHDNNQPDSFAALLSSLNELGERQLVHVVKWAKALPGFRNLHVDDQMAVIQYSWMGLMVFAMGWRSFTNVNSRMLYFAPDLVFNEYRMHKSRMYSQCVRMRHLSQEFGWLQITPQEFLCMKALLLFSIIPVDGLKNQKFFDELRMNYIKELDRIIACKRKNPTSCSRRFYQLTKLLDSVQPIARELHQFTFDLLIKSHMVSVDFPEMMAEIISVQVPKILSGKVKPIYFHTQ

Androgen receptor [6] = target: T4, Androgen receptor; format: functional; remark: listed apart in the source
Further: assay procedure not described here.

Sequence of 5-hydroxytryptamine receptor 2A (P28223 whole entry): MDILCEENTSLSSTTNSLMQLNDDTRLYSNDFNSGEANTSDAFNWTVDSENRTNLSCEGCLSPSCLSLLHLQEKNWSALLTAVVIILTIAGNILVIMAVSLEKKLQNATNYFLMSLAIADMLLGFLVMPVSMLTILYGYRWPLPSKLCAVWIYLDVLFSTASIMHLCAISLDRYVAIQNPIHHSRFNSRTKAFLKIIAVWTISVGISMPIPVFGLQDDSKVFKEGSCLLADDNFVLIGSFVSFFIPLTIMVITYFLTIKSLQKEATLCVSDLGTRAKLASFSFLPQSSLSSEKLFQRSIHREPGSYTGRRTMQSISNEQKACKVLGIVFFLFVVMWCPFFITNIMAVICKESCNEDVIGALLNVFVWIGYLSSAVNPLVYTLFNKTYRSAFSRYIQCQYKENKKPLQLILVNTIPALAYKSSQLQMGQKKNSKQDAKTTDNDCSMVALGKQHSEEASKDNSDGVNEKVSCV
Sequence of Beta-2 adrenergic receptor (P07550 whole entry): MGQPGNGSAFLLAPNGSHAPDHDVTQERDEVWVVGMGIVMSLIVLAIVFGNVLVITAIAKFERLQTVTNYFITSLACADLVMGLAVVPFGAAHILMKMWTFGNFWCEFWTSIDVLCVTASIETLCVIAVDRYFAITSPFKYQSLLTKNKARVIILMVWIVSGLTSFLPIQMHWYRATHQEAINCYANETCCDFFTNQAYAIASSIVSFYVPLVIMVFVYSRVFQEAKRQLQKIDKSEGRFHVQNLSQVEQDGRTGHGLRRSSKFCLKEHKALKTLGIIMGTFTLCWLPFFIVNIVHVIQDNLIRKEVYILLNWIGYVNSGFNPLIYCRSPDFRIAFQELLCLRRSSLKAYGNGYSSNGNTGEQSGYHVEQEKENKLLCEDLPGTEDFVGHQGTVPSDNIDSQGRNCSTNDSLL

SMILES | AC50 [1] [µM] | AC50 [2] [µM] | AC50 [4] [µM] | AC50 (Progesterone receptor) [µM] | AC50 (D(1A) dopamine receptor) [µM] | AC50 (Androgen receptor [5]) [µM] | also measured
C#C[C@]1(O)CC[C@H]2[C@@H]3CCC4=Cc5oncc5C[C@]4(C)[C@H]3CC[C@@]21C [DANAZOL] | > 30 |  |  |  |  |  | 
CCCCc1ncc(/C=C(\Cc2cccs2)C(=O)O)n1Cc1ccc(C(=O)O)cc1 [EPROSARTAN] | > 30 | > 10 | > 10 | > 30 | > 10 |  | AC50 [3]: > 30 µM
Cc1cc(O)c(C(=O)N[C@@H](C(=O)N[C@@H]2C(=O)N3C(C(=O)O)=C(CSc4nnnn4C)CS[C@H]23)c2ccc(O)cc2)cn1 [CEFPIRAMIDE] |  |  |  |  |  | > 30 | AC50 (Androgen receptor [6]): > 30 µM
COc1cc2c(N)nc(N3CCN(C(=O)OCC(C)(C)O)CC3)nc2c(OC)c1OC [TRIMAZOSIN] | > 30 |  |  |  |  | 17 | 
CC(C)C(=O)c1c(C(C)C)nn2ccccc12 [IBUDILAST] | > 30 |  |  |  |  |  | 
COc1ccc2c3c1O[C@H]1[C@@H](O)C=C[C@H]4[C@@H](C2)N(C)CC[C@@]341 [CODEINE] |  | > 10 | > 10 | > 30 | > 10 |  | AC50 [3]: > 30 µM
CC1(C)O[C@@H]2C[C@H]3[C@@H]4CCC5=CC(=O)C=C[C@]5(C)[C@H]4[C@@H](O)C[C@]3(C)[C@]2(C(=O)CO)O1 [DESONIDE] | > 30 |  |  |  |  |  | 
CC(C)Cn1cnc2c(N)nc3ccccc3c21 [IMIQUIMOD] |  |  |  | > 30 |  |  | 
COc1ccc(CCN(C)CCCC(C#N)(c2cc(OC)c(OC)c(OC)c2)C(C)C)cc1OC (stereo not given) [GALLOPAMIL] | > 30 |  |  |  |  |  | 
COc1ccc2c3c1O[C@H]1C(=O)CC[C@@]4(O)[C@@H](C2)N(C)CC[C@]314 [OXYCODONE] |  |  |  |  |  | > 30 | AC50 (Androgen receptor [6]): > 30 µM
C/C(O)=C(\C#N)C(=O)Nc1ccc(C(F)(F)F)cc1 [TERIFLUNOMIDE] | > 30 |  |  |  |  | > 30 | 
CCc1c(Cl)c(O)c(Cl)c(O)c1C(=O)O[C@H]1[C@H](O)[C@H](OC)[C@H](OC/C2=C\C=C\C[C@H](O)/C(C)=C/[C@H](CC)[C@@H](O[C@@H]3OC(C)(C)[C@@H](OC(=O)C(C)C)[C@H](O)[C@@H]3O)/C(C)=C/C(C)=C/C[C@@H]([C@@H](C)O)OC2=O)O[C@@H]1C [FIDAXOMICIN] |  | > 10 | > 10 | 11.3 | > 10 | > 30 | AC50 [3]: > 30 µM
CCN1CCN(C(=O)N[C@@H](C(=O)N[C@@H]2C(=O)N3C(C(=O)O)=C(CSc4nnnn4C)CS[C@H]23)c2ccc(O)cc2)C(=O)C1=O [CEFOPERAZONE] | > 30 |  |  |  |  |  | 
CNS(=O)(=O)Cc1ccc2[nH]cc(CCN(C)C)c2c1 | > 30 |  | > 10 | > 30 | > 10 |  | AC50 [3]: > 30 µM
CCCN(CCC)C(=O)C(CCC(=O)O)NC(=O)c1ccccc1 (stereo not given) [PROGLUMIDE] |  |  | > 10 | > 30 | > 10 |  | AC50 [3]: > 30 µM
N#Cc1ccc([C@H]2CCc3cncn32)c(F)c1 [OSILODROSTAT] |  |  | > 10 |  | > 10 |  | 
CCOC(=O)[N-]c1cn(N2CCOCC2)n[o+]1 [MOLSIDOMINE] | > 30 |  |  |  |  |  | 
NCC(=O)CCC(=O)O [AMINOLEVULINIC ACID] | > 30 |  |  |  |  |  | 

SMILES | AC50 [1] [µM] | AC50 [2] [µM] | AC50 [4] [µM] | AC50 (Progesterone receptor) [µM] | AC50 (D(1A) dopamine receptor) [µM] | AC50 (Androgen receptor [5]) [µM] | also measured
CN1C(=O)C(O)N=C(c2ccccc2Cl)c2cc(Cl)ccc21 (stereo not given) [LORMETAZEPAM] |  |  |  |  |  | > 30 | AC50 (Androgen receptor [6]): > 30 µM
CCCc1nc(C(C)(C)O)c(C(=O)OCc2oc(=O)oc2C)n1Cc1ccc(-c2ccccc2-c2nnn[nH]2)cc1 [OLMESARTAN MEDOXOMIL] |  | > 10 | > 10 | > 30 | > 10 |  | AC50 [3]: > 30 µM
CC[C@@H]1C(=O)OC[C@@H]1Cc1cncn1C [PILOCARPINE] | > 30 | 4.72 | > 10 | > 30 |  |  | 
CCC(C(=O)O)c1ccc(N2Cc3ccccc3C2=O)cc1 (stereo not given) [INDOBUFEN] | > 30 |  |  |  |  | > 30 | AC50 (Androgen receptor [6]): > 30 µM
CC(C)(C)c1cc(C(C)(C)C)c(NC(=O)c2c[nH]c3ccccc3c2=O)cc1O [IVACAFTOR] |  | > 10 | > 10 | > 30 | > 10 |  | 
CO/N=C(\C(=O)N[C@@H]1C(=O)N2C(C(=O)O)=C(CSc3nnnn3C)CS[C@H]12)c1csc(N)n1 [CEFMENOXIME] | > 30 |  |  |  |  |  | 
COc1ccccc1OCCNCC(O)c1ccc(C)c(S(N)(=O)=O)c1 (stereo not given) [AMOSULALOL] |  |  |  |  |  | > 30 | AC50 (Androgen receptor [6]): > 30 µM
CC(Oc1c(Cl)cccc1Cl)C1=NCCN1 (stereo not given) [LOFEXIDINE] |  |  |  |  |  | > 30 | AC50 (Androgen receptor [6]): > 30 µM
CC(C)=CCC/C(C)=C/C=C/C(C)=C/C=C/C(C)=C/C=C/C=C(C)/C=C/C=C(C)/C=C/C=C(\C)CCC=C(C)C [LYCOPENE] |  |  |  |  |  | > 30 | AC50 (Androgen receptor [6]): 24 µM
CN1CCN(CC/C=C2/c3ccccc3Sc3ccc(S(=O)(=O)N(C)C)cc32)CC1 [THIOTHIXENE] |  |  | 0.755 | > 30 | 0.0774 |  | AC50 [3]: > 30 µM
C=CCC1(C(C)CC)C(=O)NC(=O)NC1=O (stereo not given) [TALBUTAL] |  | > 10 |  |  |  |  | 
CN1C(=O)C(O)N=C(c2ccccc2)c2cc(Cl)ccc21 (stereo not given) [TEMAZEPAM] | > 30 | > 10 | > 10 | > 30 | > 10 |  | AC50 [3]: > 30 µM
CCC1(CC)C(=O)NCC(C)C1=O (stereo not given) [METHYPRYLON] | > 30 |  |  |  |  | > 30 | 
CC(C(=O)O)c1ccc(N2Cc3ccccc3C2=O)cc1 (stereo not given) [INDOPROFEN] |  | > 10 |  |  | > 30 |  | 
CN1CCC(=C2c3ccccc3CCc3sccc32)CC1 [PIZOTYLINE] | > 30 | 0.0002 | 0.577 |  |  |  | 
C[C@H](N)[C@H](O)c1cccc(O)c1 [METARAMINOL] |  | > 10 |  |  |  |  | 
Cc1ccc(-n2nccn2)c(C(=O)N2CCN(c3nc4cc(Cl)ccc4o3)CC[C@H]2C)c1 [SUVOREXANT] |  |  |  |  |  | > 30 | AC50 (Androgen receptor [6]): > 30 µM

Reference: ChEMBL document CHEMBL5291721, “A preclinical secondary pharmacology resource illuminates target-adverse drug reaction associations of marketed drugs” (Nat Commun, 2023)
